Assays:
[1] = extraction solvent; source not given; cited from earlier work
pancreatic α-amylase = molecular target: T1, pancreatic α-amylase (Sus scrofa, UniProt P00690); test: In vitro pancreatic α-amylase inhibitory assay (starch substrate, DNSA); settings: for Inhibition Type: Lineweaver–Burk plots, inhibitor 50 µM (acarbose 5 µM); for Vmax: enzyme Vmax in presence of inhibitor 50 µM (acarbose 5 µM), control 29.6 ± 0.8
T1 sequence (P00690 16-511): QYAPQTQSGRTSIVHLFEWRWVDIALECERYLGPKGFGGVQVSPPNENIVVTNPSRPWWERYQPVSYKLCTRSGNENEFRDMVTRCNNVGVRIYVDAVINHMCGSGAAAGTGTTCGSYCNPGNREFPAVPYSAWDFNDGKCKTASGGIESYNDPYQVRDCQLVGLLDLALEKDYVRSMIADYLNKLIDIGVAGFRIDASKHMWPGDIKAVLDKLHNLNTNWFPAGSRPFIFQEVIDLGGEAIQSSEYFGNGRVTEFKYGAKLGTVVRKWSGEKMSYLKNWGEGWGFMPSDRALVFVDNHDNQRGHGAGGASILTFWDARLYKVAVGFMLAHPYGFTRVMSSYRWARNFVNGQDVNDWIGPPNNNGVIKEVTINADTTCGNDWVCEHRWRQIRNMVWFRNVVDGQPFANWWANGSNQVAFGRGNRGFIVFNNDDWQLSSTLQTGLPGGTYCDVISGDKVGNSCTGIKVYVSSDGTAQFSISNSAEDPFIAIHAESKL
Description: The inhibition of pancreatic α-amylase activity by N. sativa seed extracts and fractions was studied according to the procedure described by Daoudi et al. [29]. […] The mixtures were pre-incubated at 37 °C for 10 min. Then, 200 μL of starch (1% (w/v)) dissolved in phosphate buffer was added to each tube and were incubated for 20 min at 37 °C. To stop the enzymatic reaction 600 μL of DNSA color reagent was added. Hereafter, the tubes were incubated for 8 min at 100 °C, before being put in an ice-cold-water bath for a few minutes. The mixture was diluted by adding 1 mL of distilled water and the absorbance was measured at 540 nm. Inhibition percentage was calculated using the formula bellows:Inhibitory activity percentage= ((AControl 540 nm − ATest 540 nm)/AControl 540 nm) × 100(2)
Lineweaver–Burk double reciprocal representation (plotting 1/velocity vs 1/substrate concentration) was used to assess inhibition mode, and kinetic parameters Km and Vmax were determined using the Michaelis-Menten equation.
Secondary plots were used to establish the inhibition constants Ki (slope of the Lineweaver–Burk double reciprocal representation vs inhibitor concentration and intercept of the Lineweaver–Burk double reciprocal representation vs inhibitor concentration).

intestinal α-glucosidase = intestinal α-glucosidase (Rattus norvegicus, UniProt P23739); test: In vitro intestinal α-glucosidase inhibitory assay (sucrose substrate, glucose release); type: biochemical; settings: for Inhibition Type: Lineweaver–Burk plots, inhibitor 50 µM (acarbose 5 µM); for Vmax: enzyme Vmax in presence of inhibitor 50 µM (acarbose 5 µM), control 14.1 ± 0.7
intestinal α-glucosidase, sequence (P23739 whole entry): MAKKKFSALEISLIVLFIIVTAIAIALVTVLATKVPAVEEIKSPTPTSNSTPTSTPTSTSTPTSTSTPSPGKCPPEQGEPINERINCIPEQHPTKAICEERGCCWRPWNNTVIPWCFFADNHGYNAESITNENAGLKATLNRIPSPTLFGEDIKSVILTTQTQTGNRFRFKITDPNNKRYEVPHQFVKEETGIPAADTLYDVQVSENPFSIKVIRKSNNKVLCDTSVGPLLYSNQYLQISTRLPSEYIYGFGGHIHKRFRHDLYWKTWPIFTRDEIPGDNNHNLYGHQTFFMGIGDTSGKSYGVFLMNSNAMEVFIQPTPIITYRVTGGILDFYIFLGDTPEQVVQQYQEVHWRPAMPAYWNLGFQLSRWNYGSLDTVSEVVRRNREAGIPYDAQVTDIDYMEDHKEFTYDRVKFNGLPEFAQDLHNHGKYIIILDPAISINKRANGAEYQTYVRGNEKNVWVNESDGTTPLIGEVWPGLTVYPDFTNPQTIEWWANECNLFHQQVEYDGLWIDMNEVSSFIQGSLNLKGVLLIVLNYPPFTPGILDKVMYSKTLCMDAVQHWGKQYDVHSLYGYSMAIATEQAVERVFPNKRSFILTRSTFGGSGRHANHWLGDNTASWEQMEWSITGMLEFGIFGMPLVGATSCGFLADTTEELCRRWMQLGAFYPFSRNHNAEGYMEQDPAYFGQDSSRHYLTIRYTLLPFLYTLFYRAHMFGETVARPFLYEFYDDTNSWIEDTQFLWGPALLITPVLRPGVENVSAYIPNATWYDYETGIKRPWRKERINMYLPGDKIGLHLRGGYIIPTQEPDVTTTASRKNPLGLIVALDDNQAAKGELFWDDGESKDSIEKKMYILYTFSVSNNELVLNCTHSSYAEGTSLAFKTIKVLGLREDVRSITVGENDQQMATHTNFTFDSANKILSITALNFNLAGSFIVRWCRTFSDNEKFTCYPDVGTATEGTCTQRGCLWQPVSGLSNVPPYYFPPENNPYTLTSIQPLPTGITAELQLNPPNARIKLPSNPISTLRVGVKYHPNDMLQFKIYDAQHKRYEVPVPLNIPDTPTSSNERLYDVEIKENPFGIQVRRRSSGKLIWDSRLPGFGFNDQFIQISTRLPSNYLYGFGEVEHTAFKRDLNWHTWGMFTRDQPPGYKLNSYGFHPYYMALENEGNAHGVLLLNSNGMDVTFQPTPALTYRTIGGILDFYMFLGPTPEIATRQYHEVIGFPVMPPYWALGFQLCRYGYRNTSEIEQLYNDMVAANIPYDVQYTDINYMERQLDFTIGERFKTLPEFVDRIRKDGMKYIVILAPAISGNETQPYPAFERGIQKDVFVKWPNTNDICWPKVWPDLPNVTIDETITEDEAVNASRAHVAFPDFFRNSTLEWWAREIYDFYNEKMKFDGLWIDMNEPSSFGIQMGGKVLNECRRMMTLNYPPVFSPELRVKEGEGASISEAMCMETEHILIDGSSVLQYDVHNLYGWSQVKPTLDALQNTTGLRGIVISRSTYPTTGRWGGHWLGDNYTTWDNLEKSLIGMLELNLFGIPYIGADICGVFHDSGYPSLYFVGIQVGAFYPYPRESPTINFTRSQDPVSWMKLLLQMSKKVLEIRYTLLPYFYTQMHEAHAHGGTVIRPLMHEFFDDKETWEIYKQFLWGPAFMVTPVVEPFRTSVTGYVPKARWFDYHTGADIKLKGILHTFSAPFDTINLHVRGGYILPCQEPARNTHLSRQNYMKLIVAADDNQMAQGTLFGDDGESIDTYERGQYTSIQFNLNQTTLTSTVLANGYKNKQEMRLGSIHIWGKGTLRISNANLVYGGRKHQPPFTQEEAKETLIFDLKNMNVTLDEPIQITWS
Description: The effect of the N. sativa seed extracts and fractions against intestinal α-glucosidase activity was quantified colorimetrically by monitoring the glucose release from sucrose degradation, according to the protocol described by Ouassou et al.. The assay mixtures contained 100 µL of sucrose (50 Mm), 1000 μL of phosphate- buffer (50 mM; pH = 7.5), and 100 μL of intestinal α-glucosidase enzyme solution (10 IU). […] Then, tubes were incubated at 37 °C in a water bath for 25 min. The mixture was heated at 100 °C for 5 min to stop the enzymatic reaction, and the release of glucose was estimated by the glucose oxidase method using a commercially available auto-kit. The absorbance was measured at 500 nm, and the inhibition percentage was calculated using the below formula:Inhibitory activity percentage = ((Acontrol 500 nm − ATest 500 nm)/Acontrol 500 nm) × 100(1)
The assays were conducted as described above. […] The experiments were repeated three times.

Compound	Inhibition Type (pancreatic α-amylase)	Vmax (pancreatic α-amylase) [µM/min]	Inhibition Type (intestinal α-glucosidase)	Vmax (intestinal α-glucosidase) [µM/min]	other results
CC(C)=O [Acetone]	–	–	–	–	logP [1]: −0.16
O=C(O)c1cc(O)c(O)c(O)c1 [Gallic acid, gallic acid]	Competitive	76.9 ± 1.4	Noncompetitive	14.7 ± 1.2	IC50 (pancreatic α-amylase): 27.8 ± 2.06 µM
Oc1cc(O)c2c(c1)O[C@@H](c1ccc(O)c(O)c1)[C@H](O)C2 [(−)-Catechin, (−)-catechin]	–	–	Noncompetitive	13.1 ± 0.9	fractional inhibition concentration (FIC) (intestinal α-glucosidase; mixed with acarbose, FIC = IC50 in combination with acarbose/IC50 alone, synergistic effect): 0.16
O=c1cc(-c2ccc(O)cc2)oc2cc(O)cc(O)c12 [Apigenin, apigenin]	Competitive	90.1 ± 0.7	–	–	fractional inhibition concentration (FIC) (pancreatic α-amylase; combined with acarbose, possible additive effect): 0.74
C[C@H]1O[C@H](O[C@H]2[C@H](O)[C@@H](O)[C@@H](O[C@H]3[C@H](O)[C@@H](O)C(O)O[C@@H]3CO)O[C@@H]2CO)[C@H](O)[C@@H](O)[C@@H]1N[C@H]1C=C(CO)[C@@H](O)[C@H](O)[C@H]1O (stereo partly shown) [Acarbose, acarbose, reference compound]	Competitive	53.8 ± 1.1	Competitive	23.9 ± 0.5	Inhibition of pancreatic α-amylase activity (pancreatic α-amylase; positive control at 5 µM (3.22 µg/mL)): 65.6 ± 4.1%; inhibition at 50 µM (intestinal α-glucosidase; read-out: Inhibition of intestinal α-glucosidase activity): 89.2 ± 0.5%
CC1=CC(=O)C(C(C)C)=CC1=O [thymoquinone]	–	–	–	–	inhibition of intestinal α-glucosidase (in words) (intestinal α-glucosidase; under the evaluated concentration range (50 µM in kinetics), data not shown): not active
